From the CheMixHub drug solubility set

Test: xn = mol fraction of the nth substance listed, in the solute-free solvent

Cc1cc(Cl)cc(C(=O)O)c1N + CC(C)=O + CC#N
solubility (g/100 g solution)
Details	278.15 K	283.15 K	288.15 K	293.15 K	298.15 K	303.15 K	308.15 K	313.15 K	318.15 K	323.15 K
x2 = 0.1114	1.03	1.1	1.25	1.42	1.6	1.82	2.12	2.5	2.98	3.61
x2 = 0.2335	1.51	1.63	1.87	2.13	2.41	2.74	3.2	3.76	4.46	5.3
x2 = 0.3677	1.98	2.16	2.48	2.84	3.21	3.65	4.26	5	5.89	6.95
x2 = 0.516	2.46	2.68	3.09	3.54	4	4.55	5.3	6.22	7.3	8.55
x2 = 0.6807	2.92	3.19	3.69	4.24	4.78	5.44	6.32	7.42	8.69	10.1
x2 = 0.8648	3.39	3.71	4.29	4.92	5.55	6.31	7.34	8.61	10.1	11.7
